Results published in patent publication US10449269B2, “Particle conjugated prosthetic patches and methods of making and using thereof” (Yale University, priority 2016, dated 2019).

Columns and labels:
[1] = molecular target: T1, nodal type I receptor ALK7 (Homo sapiens, UniProt Q8NER5); settings: cited from earlier work
T1 sequence (Q8NER5 21-493): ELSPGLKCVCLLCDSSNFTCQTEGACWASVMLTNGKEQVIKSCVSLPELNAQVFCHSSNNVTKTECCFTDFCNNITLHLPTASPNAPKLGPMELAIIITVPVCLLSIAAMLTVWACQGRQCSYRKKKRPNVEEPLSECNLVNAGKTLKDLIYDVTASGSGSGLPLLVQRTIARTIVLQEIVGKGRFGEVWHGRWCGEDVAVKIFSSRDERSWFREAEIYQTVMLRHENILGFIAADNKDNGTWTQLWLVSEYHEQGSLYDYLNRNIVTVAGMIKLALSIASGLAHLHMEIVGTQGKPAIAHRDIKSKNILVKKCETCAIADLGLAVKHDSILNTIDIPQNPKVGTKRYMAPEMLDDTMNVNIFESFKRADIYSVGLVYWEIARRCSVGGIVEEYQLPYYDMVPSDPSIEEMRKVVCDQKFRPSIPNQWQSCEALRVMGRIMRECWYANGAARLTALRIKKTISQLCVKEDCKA

[2] = system: TGF-β1-induced collagen Iα1 mRNA; settings: cited from earlier work
[3] = system: TGF-β1-induced fibronectin mRNA; settings: cited from earlier work
[4] = system: TGF-β1-induced PAI-1 mRNA; settings: cited from earlier work
[5] = system: TGF-β1-induced fibronectin protein; settings: cited from earlier work
[6] = TGF-β1 release from NP patches in PBS (Micro BCA); format: physicochemical; settings: in vitro
Procedure: Pericardial patches were covalently modified using NP loaded with TGF-β1. TGF-β1 (4 μg) was dissolved in PBS (200 μL) and added to chloroform (2 mL) containing carboxylated poly(lactic-coglycolic acid) (PLGA) (100 mg). The mixture was then added drop-wise to 5% polyvinyl alcohol (PVA) (4 mL) and sonicated three times to form NP. The NP were dispersed in 0.2% PVA solution (200 mL) to evaporate the solvent for 2 h while stirring (40 ng TGF-β1/mg NP, […]). Patches (7 mm×5 mm) were conjugated with the NP using ethyl (dimethylaminopropyl) carbodiimide/N-hydroxysuccinimide (EDC/NHS) chemistry, as discussed above. EDC (20 μmol/mL) and NHS (10 μmol/mL) were dissolved in MES solution (0.1 M; pH 5) for the conjugation. Carboxyl groups on the NP were activated using EDC (1 mL) for 30 min and substituted with NHS by adding NHS (1 mL) for 30 min. The solution pH was raised from 5 to 8 using NaOH (1 M). Patches were then placed into the activated NP suspension and incubated at 37° C. overnight. To assess TGF-β1 release from NP patches in vitro, the patches were incubated in PBS at 37° C. The supernatant was collected at the desired time points and used to quantify TGF-β1 using a Micro BCA Protein Assay Kit (Thermo Fisher Scientific).

| Compound | inhibition of ALK7 [1] | IC50 [2] | IC50 [3] | IC50 [4] | IC50 [5] | duration of sustained release of TGF-β1 [6] | period in which cumulative release was highest (first days) [6] | time until which release slowly decreased [6] |
| --- | --- | --- | --- | --- | --- | --- | --- | --- |
| NC(=O)c1ccc(-c2nc(-c3ccc4c(c3)OCO4)c(-c3ccccn3)[nH]2)cc1 [SB 431542] | inhibits | 60 nM | 62 nM | 50 nM | 22 nM |  |  |  |
| TGF β1: polypeptide member of the transforming growth factor beta superfamily of cytokines |  |  |  |  |  | 2-3 weeks | 5 days | 21 days |
